Results: PMC8954382, “A Sub-Micromolar MraYAA Inhibitor with an Aminoribosyl Uridine Structure and a (S,S)-Tartaric Diamide: Synthesis, Biological Evaluation and Molecular Modeling” (Molecules, 2022)
Read-outs that look alike come from different tables or passages of the source.

Assays:
[1] = molecular target: T1, MraY transferase purified from Aquifex aeolicus (MraYAA) (Aquifex aeolicus, UniProt O66465); experiment: MraYAA transferase inhibition, fluorescence assay with dansylated UDP-MurNAc-pentapeptide; type: biochemical; conditions: for IC50: inhibition of MraYAA transferase activity, triplicate, repeated at least twice
T1 construct: His tag; made in house
T1 sequence (O66465 whole entry): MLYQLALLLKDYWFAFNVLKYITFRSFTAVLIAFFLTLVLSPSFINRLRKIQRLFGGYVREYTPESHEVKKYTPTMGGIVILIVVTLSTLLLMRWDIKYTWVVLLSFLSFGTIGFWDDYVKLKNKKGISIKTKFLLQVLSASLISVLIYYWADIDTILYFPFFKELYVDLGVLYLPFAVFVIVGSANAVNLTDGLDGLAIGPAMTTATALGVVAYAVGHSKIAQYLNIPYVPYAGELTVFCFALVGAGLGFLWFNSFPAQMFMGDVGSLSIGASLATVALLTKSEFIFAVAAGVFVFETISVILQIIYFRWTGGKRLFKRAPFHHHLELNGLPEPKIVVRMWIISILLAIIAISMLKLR
Protocol: The inhibitory activity of the synthesized compounds 2, (S,S)-3a, (R,R)-3b, 4 and 5 was evaluated on MraY transferase purified from Aquifex aeolicus (MraYAA), which was prepared as previously described by Chung et al.. Their activity was compared to the inhibitory activity of the unprotected amino precursor 12, urea-containing inhibitor 13 and C- and N-triazole-containing inhibitors 14 and 15 (Figure 4) that we previously synthesized (Table 1). Commercially available tunicamycin from Streptomyces sp. was used as a positive control in the test.
The inhibitory activity of the synthesized compounds 1–5 was determined as described in Reference. The compounds were evaluated on His-tagged MraY transferase purified from Aquifex aeolicus (MraYAA) prepared as previously described by Chung et al.. The assays were performed as previously described by Stachyra et al. in 96-well plates in a total reaction mixture of 100 µL containing 100 mM of Tris-HCl (pH 7.5), 40 mM MgCl2, 150 µM C55-P, 150 mM NaCl, 25 µM dansylated UDP-MurNAc-pentapeptide and 0.4% of n-dodecyl β-D-maltoside. The reaction was initiated by the addition of pure MraYAA enzyme (10 µL, 0.036 mg/mL). Briefly, MraY catalyzed the formation of lipid I, displaying an apolar environment from polar and hydrosoluble dansylated-UDP-MurNAc-pentapeptide. This modification in the environment of the dansyl probe was accompanied by an enhancement (3.4 times) of fluorescence, as well as a shift of the maximum of fluorescence emission spectrum from 560 nm for the dansylated nucleotidic substrate to 530 nm for the dansylated lipid product (see Figure 2 in Stachyra et al.. This property was exploited to develop an HTS assay and to assess MraY activity by using an Enspire fluorescence microplate reader (Perkin-Elmer, Courtaboeuf, France). The fluorescence measurement was read every two minutes at 37 °C, under shaking during 60 min; the excitation wavelength and the emission wavelength were 340 nm and 530 nm, respectively. Experiments were performed in triplicate, and each experiment was repeated at least twice. In each case, the fluorescence of a control sample without enzyme was subtracted, initial velocity was calculated and percent inhibition was deduced. IC50 values were determined from plots of the percent inhibition versus the inhibitor concentration, and data were processed on Excel software.

[2] = test system: Enterococcus faecium ATCC 19434; experiment: Antibacterial activity, MIC by broth microdilution; type: cell-based; conditions: Gram +
Protocol: (§1) Even if our goal was to improve the MraY inhibitory activity of the reference urea 13, and that was successfully achieved, the antibacterial activity of MraY inhibitors 2–5 was also evaluated against several bacterial strains. Gram-negative (E. coli ATCC 8730, C. freundii ATCC8090 and P. aeruginosa ATCC 27853) and Gram-positive pathogenic bacterial strains (S. aureus ATCC 25923 and E. faecium ATCC 19434), including a methicillin resistant strain (S. aureus MRSA ATCC 43300), were selected as representative of pathogen bacterial diversity. Piperacillin and vancomycin were used as positive controls in the tests. […] Therefore, further optimization of the lipophilic side chain is still required to increase the antibacterial activity by modulating the lipophilicity of the molecule.
(§2) Tests were made according to the procedure described in Reference, following EUCAST (European Committee on Antimicrobial Susceptibility testing)/CLSI (Clinical and Laboratory Standard Institute) recommended procedure. This microtitration plate size allows direct detection of bacterial growth in a relatively small volume, without the use of a spectrophotometer or the addition of dyes. Molecules were solubilized in 100% DMSO (cell culture grade) at 20.48 mg/mL concentration and 40-fold diluted in MHB to reduce DMSO concentration in the antibacterial test, just before utilization. The MHB-diluted solutions were then serially two-fold diluted in MHB, at final concentration ranging from 128 to 1 µg/mL. Bacterial inoculums were prepared for each strain, resuspending isolated colonies from 18 h cultured plates. Equivalents of 0.5 Mac Farland turbidity standard (approximately 1.108 CFU/mL) were prepared in saline solution (NaCl […]) and diluted 200-fold in MBH. The bacterial suspensions were then added to microplates containing the diluted molecules. Microtitration plates were incubated overnight at 37 °C. MICs were determined as the lowest dilution of product showing no visual turbidity.

[3] = test system: Staphylococcus aureus ATCC 25923; experiment: Antibacterial activity, MIC by broth microdilution; type: cell-based; conditions: Gram +
Protocol: as §1, §2

[4] = test system: Escherichia coli ATCC 8730; experiment: Antibacterial activity, MIC by broth microdilution; type: cell-based; conditions: Gram -
Protocol: as §1, §2

[5] = test system: Pseudomonas aeruginosa ATCC 27853; experiment: Antibacterial activity, MIC by broth microdilution; type: cell-based; conditions: Gram -
Protocol: as §1, §2

[6] = test system: Citrobacter freundii ATCC 8090; experiment: Antibacterial activity, MIC by broth microdilution; type: cell-based; conditions: Gram -
Protocol: as §1, §2

[7] = test system: Staphylococcus aureus MRSA ATCC 43300; experiment: Antibacterial activity, MIC by broth microdilution; type: cell-based; conditions: Gram +
Protocol: as §1, §2

[8] = test system: MraY; conditions: Table 2, known inhibitor, cited from earlier work
[9] = test system: six selected bacterial species; design: method as in PMID 34115086; conditions: previously reported; ref [32]; cited from earlier work

Molecule | IC50 [1] [nM] | CMI [2] [µg/mL] | CMI [3] [µg/mL] | CMI [4] [µg/mL] | CMI [5] [µg/mL] | CMI [6] [µg/mL] | CMI [7] [µg/mL] | IC50 ([8]; ref [31]) [nM] | antibacterial activity [9] | gain in activity (factor) as compared to the reference compound 13 with an urea linker ([1]; ratio of MraYAA IC50 values) | IC50 ([8]; ref [41]) [nM]
CCCCCCCCCCNC(=O)C(O)C(O)C(=O)NCC(OC1OC(CN)C(O)C1O)C1OC(n2ccc(=O)[nH]c2=O)C(O)C1O [(R,R)-3b] | 1380 ± 50 | > 128 | 128 | > 128 | > 128 | > 128 | > 128 | – | – | – | –
CCCCCCCCCCCCCCCCC[C@H]1CN(C)[C@@H]([C@H](O[C@@H]2O[C@H](CN)[C@@H](O)[C@H]2O)[C@H]2O[C@@H](n3ccc(=O)[nH]c3=O)[C@H](O)[C@@H]2O)C(=O)N(C)[C@@H]1C(=O)O [Carbacaprazamycin] | – | – | – | – | – | – | – | 104 | – | – | –
CCCCCCCCCCNc1c(NCC(OC2OC(CN)C(O)C2O)C2OC(n3ccc(=O)[nH]c3=O)C(O)C2O)c(=O)c1=O (stereo not drawn) [Compound 2] | 17970 ± 40 | > 128 | > 128 | > 128 | > 128 | > 128 | > 128 | – | – | – | –
CCCCCCCCCCC(=O)NCC(OC1OC(CN)C(O)C1O)C1OC(n2ccc(=O)[nH]c2=O)C(O)C1O (stereo not drawn) [Compound 4] | 6490 ± 210 | 128 | 128 | > 128 | > 128 | > 128 | 128 | – | – | – | –
CCCCCCCCCCS(=O)(=O)NCC(OC1OC(CN)C(O)C1O)C1OC(n2ccc(=O)[nH]c2=O)C(O)C1O (stereo not drawn) [Compound 5] | 2910 ± 130 | > 128 | > 128 | > 128 | > 128 | > 128 | > 128 | – | – | – | –
NC[C@H](O[C@@H]1O[C@H](CN)[C@@H](O)[C@H]1O)[C@H]1O[C@@H](n2ccc(=O)[nH]c2=O)[C@H](O)[C@@H]1O [Compound 12, reference compound] | 50300 ± 3270 | – | – | – | – | – | – | – | – | – | –
CCCCCCCCCCNC(=O)NC[C@H](O[C@@H]1O[C@H](CN)[C@@H](O)[C@H]1O)[C@H]1O[C@@H](n2ccc(=O)[nH]c2=O)[C@H](O)[C@@H]1O [Compound 13, reference compound] | 1930 ± 130 | > 128 | > 128 | > 128 | > 128 | > 128 | > 128 | – | does not display antibacterial activity | – | –
CCCCCCCCCCNC(=O)C(O)C(O)C(=O)NCC(OC1OC(CN)C(O)C1O)C1OC(n2ccc(=O)[nH]c2=O)C(O)C1O [Compound (S,S)-3a] | 370 ± 10 | > 128 | 128 | > 128 | > 128 | > 128 | > 128 | – | – | 5 | –
CC(C)C[C@H](NC(=O)[C@@H](NC(=O)N[C@H](C(=O)O)C(C)C)[C@@H]1CCN=C(N)N1)C(=O)NCCCN[C@H](C(=O)O)[C@H](O[C@@H]1O[C@H](CN)[C@@H](O)[C@H]1O)[C@H]1O[C@@H](n2ccc(=O)[nH]c2=O)[C@H](O)[C@@H]1O [Muraymycin D2] | – | – | – | – | – | – | – | – | – | – | 46
CCN1CCN(C(=O)N[C@@H](C(=O)N[C@@H]2C(=O)N3[C@@H]2SC(C)(C)[C@@H]3C(=O)O)c2ccccc2)C(=O)C1=O [Piperacillin, reference compound] | – | 4 | 4 | 4 | 8 | 4 | > 128 | – | – | – | –
CN[C@H](CC(C)C)C(=O)N[C@H]1C(=O)N[C@@H](CC(N)=O)C(=O)N[C@H]2C(=O)N[C@H]3C(=O)N[C@H](C(=O)N[C@H](C(=O)O)c4cc(O)cc(O)c4-c4cc3ccc4O)[C@H](O)c3ccc(c(Cl)c3)Oc3cc2cc(c3O[C@@H]2O[C@H](CO)[C@@H](O)[C@H](O)[C@H]2O[C@H]2C[C@](C)(N)[C@H](O)[C@H](C)O2)Oc2ccc(cc2Cl)[C@H]1O [Vancomycin, reference compound] | – | 0.5 | 1 | – | – | – | 1 | – | – | – | –
Tunicamycin [reference compound] | 26 | – | – | – | – | – | – | – | – | – | –
